Measurements: patent US9868724B2, “Compounds” (GLAXOSMITHKLINE INTELLECTUAL PROPERTY DEVELOPMENT LIMITED, priority 2014, dated 2018)

Tests used:
RORγ-LBD = target: T1, RORγ-LBD (Homo sapiens, UniProt P51449); test: Fluorescence Energy Transfer (FRET) Assay; assay type: biochemical; settings: mean pIC50 of multiple test results if tested more than once; SRC1/RORγ-LBD with 0.2 μM surrogate agonist
T1 construct: adding an appropriate amount of biotinylated RORγ-LBD and APC-labeled streptavidin
T1 sequence (P51449 269-508 limits assumed): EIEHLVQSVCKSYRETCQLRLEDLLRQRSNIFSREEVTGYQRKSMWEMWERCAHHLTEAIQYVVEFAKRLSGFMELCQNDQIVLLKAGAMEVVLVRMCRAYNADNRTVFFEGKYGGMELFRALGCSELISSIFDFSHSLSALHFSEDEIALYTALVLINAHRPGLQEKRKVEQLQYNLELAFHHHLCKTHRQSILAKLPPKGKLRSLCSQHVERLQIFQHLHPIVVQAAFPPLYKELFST
Experimental: The assays were performed in an assay buffer consisting of 50 mM NaF, 50 mM 3-(N-morpholino)propanesulfonic acid, pH 7.5, 50 μM 3-[(3-cholamidopropyl)dimethylammonio]-propanesulfonate, 0.1 mg/mL bovine serum albumin, and 10 mM dithiothreitol in 384-well plates (Greiner 784076, Longwood, Fla.). The total volume was 10 μL/well. The europium-labeled SRC1 solution was prepared by adding an appropriate amount of biotinylated SRC and europium labeled streptavidin (PerkinElmer Life and Analytical Sciences, Waltham, Mass.) into assay buffer, with final concentrations of 27 and 3.3 nM, respectively. The allophycocyanin (APC)-labeled-LBD solution was prepared by adding an appropriate amount of biotinylated RORγ-LBD and APC-labeled streptavidin (CR130-100; PerkinElmer Life and Analytical Sciences) at a final concentration of 33 nM each. After 15 min of incubation at room temperature, a 20-fold excess of biotin was added to block the remaining free streptavidin. […] The plates were incubated for 1 h at room temperature and then read on ViewLux (PerkinElmer Life and Analytical Sciences) in LANCE mode configured for europeum-APC labels. Data were collected and analyzed by Activitybase.

[1] = target: T2, RORγ ligand binding domain (RORγ-LBD) (Homo sapiens, UniProt P51449); test: Dual Fluorescence Energy Transfer (FRET) Assay; assay type: biochemical; settings: mean pIC50 of multiple test results if tested more than once; RORγ-LBD/SRC1(2) peptide interaction
T2 construct: modified polyhistidine tag MKKHHHHHHLVPRGS (N); made in house; host or cells: E. coli BL21(DE3)
T2 sequence (P51449 263-518): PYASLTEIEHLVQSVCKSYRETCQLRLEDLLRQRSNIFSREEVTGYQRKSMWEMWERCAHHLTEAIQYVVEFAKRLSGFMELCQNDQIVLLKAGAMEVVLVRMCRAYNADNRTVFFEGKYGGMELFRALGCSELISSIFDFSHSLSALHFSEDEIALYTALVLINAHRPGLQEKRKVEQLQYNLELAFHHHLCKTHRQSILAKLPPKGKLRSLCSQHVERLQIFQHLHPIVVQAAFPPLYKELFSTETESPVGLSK
Excerpt: This assay is based on the knowledge that nuclear receptors interact with cofactors (transcription factors) in a ligand dependent manner. RORγ is a typical nuclear receptor in that it has an AF2 domain in the ligand binding domain (LBD) which interacts with co-activators. The sites of interaction have been mapped to the LXXLL motifs in the co-activator SRC1(2) sequences. Short peptide sequences containing the LXXLL motif mimic the behavior of full-length co-activator.
The assay measures ligand-mediated interaction of the co-activator peptide with the purified bacterial-expressed RORγ ligand binding domain (RORγ-LBD) to indirectly assess ligand binding. RORγ has a basal level of interaction with the co-activator SRC1(2) in the absence of ligand, thus it is possible to find ligands that inhibit or enhance the RORγ/SRC1(2) interaction.
Human RORγ Ligand Binding Domain (RORγ-LBD) was expressed in E. coli strain BL21(DE3) as an amino-terminal polyhistidine tagged fusion protein. DNA encoding this recombinant protein was sub-cloned into a modified pET21a expression vector (Novagen). […]
Approximately 50 g E. coli cell pellet was resuspended in 300 mL of lysis buffer (30 mM imidazole pH 7.0 and 150 mM NaCl). […] After washing to baseline absorbance with the equilibration buffer, the column was developed with a gradient from 30 to 500 mM imidazole pH 7.0. […]

RORγ = target: T3, RORγ (Homo sapiens, UniProt P51449); test: Jurkat Cell Luciferase Assay; assay type: cell-based; settings: mean pIC50 of multiple test results if tested more than once; Jurkat cells, human IL17 promoter luciferase reporter, RORγt overexpression
T3 construct: expressed in transfected cells
T3 sequence (P51449 1-497 isoform P51449-2): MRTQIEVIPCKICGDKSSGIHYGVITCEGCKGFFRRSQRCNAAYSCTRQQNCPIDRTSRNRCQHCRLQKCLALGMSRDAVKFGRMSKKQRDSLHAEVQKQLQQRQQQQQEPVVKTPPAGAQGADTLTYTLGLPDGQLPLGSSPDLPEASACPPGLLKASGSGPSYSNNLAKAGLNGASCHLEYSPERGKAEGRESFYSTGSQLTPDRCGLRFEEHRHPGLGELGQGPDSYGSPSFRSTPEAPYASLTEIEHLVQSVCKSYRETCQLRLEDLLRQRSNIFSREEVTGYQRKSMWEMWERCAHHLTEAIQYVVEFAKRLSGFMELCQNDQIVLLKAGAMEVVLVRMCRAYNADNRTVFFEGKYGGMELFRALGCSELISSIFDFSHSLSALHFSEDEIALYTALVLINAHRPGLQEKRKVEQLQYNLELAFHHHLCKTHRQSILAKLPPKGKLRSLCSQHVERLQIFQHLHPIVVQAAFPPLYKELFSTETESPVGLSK
Excerpt: RORγ is known to bind to a CNS (conserved non-coding sequences) enhancer element in the IL17 promoter. In this assay, RORγ activity is indirectly assessed using a luciferase reporter construct which contains the human IL17 promoter having the RORγ-specific CNS enhancer element. Inhibition of RORγ activity by a compound will result in a decrease in luciferase activity of Jurkat cells transfected with the reporter construct.
For the luciferase reporter plasmid, the 3 Kb human IL17 promoter containing the RORγ-specific CNS enhancer element was PCR amplified from human genomic DNA and cloned into a pGL4-Luc2/hygro reporter plasmid sequentially as XhoI-HindIII (1.1 Kb) and KpnI-XhoI (1.9 Kb) fragments. For the 1.1 Kb fragment, PCR was used to amplify human IL17 proximal promoter region from genomic DNA of 293T cells using primers as follows: forward primer, 5′-[…]-3′ (XhoI site is underlined) and reverse primer, 5′-[…]-3′ (HindIII site is underlined). The 1.1 kb DNA bands were excised, purified, and inserted into pMD19-T Simple Vector (Takara). […]
Compounds were dissolved in DMSO at three concentrations, 10 mM, 400 uM and 16 uM, and were dispensed into 384-wells assay plate at 40 nl, 12.5 nl, 5 nl respectively. The volume was adjusted with pure DMSO to a give a final uniform volume of 40 nl Jurkat cells described above were counted and centrifuged. […]

Mouse CD4+ cells = test: Th17 Cell Differentiation Assay; assay type: cell-based; settings: mean pIC50 of multiple test results if tested more than once, IL-17 ELISA
Experimental: Mouse CD4+ cells were purified using the CD4+ T Cell Isolation II Kit according to manufacturer's instructions (Miltenyi Biotec). 96 well plates were pre-coated with anti-mCD3 antibody. Un-coated wells were used as controls. CD4+ Cells were resuspended in RPMI 1640 complete medium and were added to the 96-well plates. Cytokine cocktail and the compound were then added to the wells. Antibodies and cytokines (all from R&D Systems) used in the assay were selected from the following: anti-mCD3; anti-mCD28; anti-mIFNγ; anti-mIL4; mIL-6; mIL-23; mIL-1β; hTGF-β1. The culture was incubated at 37° C. for 3 days and supernatants were collected for ELISA. The IL-17 ELISAs were performed according to manufacturer's instructions (R&D Systems). The results were analyzed using Prism software with non-linear regression to determine pIC50.
The Th17 differentiation culture described above was maintained for 5 days and cells were analyzed by IL-17 and IFN-γ intracellular staining according to manufacturer's instructions (BD Biosciences).

Structure (SMILES) | IC50 (RORγ-LBD) [nM] | IC50 [1] [nM] | IC50 (RORγ) [nM] | IC50 (Mouse CD4+ cells) [nM]
Cc1ncc(C(=O)Nc2cc(Cl)cc(CN3CCN(C(=O)[C@@H]4CCOC4)[C@@H](C)C3)c2C)cc1C#N (single isomer, unassigned) [Example 91] | ~251 | ~794 | ~12.6 | ~17.4
Cc1ncc(C(=O)Nc2cc(Cl)cc(CN3CCN(C(=O)[C@H]4CCOC4)[C@@H](C)C3)c2C)cc1F [Example 57, N-(5-chloro-2-methyl-3-(((S)-3-methyl-4-((S)-tetrahydrofuran-3-carbonyl)piperazin-1-yl)methyl)phenyl)-5-fluoro-6-methylnicotinamide] | ~126 | ~200 | ~25.1 | ~81.3
